In ChEMBL document CHEMBL5096151, “Phytocannabinoid Pharmacology: Medicinal Properties of Cannabis sativa Constituents Aside from the "Big Two"” (J Nat Prod, 2021):

How the values were obtained:
[1] = target: T1, Transient receptor potential cation channel subfamily V member 1 (Homo sapiens, UniProt Q8NER1); test: Agonist activity at ionomycin-stimulated TRPV1 (unknown origin) activation
[2] = target: T1, Transient receptor potential cation channel subfamily V member 1; test: Agonist activity at ionomycin-stimulated TRPV1 (unknown origin) activation assessed as efficacy relative to control
[3] = target: T1, Transient receptor potential cation channel subfamily V member 1; test: Agonist activity at ionomycin-stimulated TRPV1 (unknown origin) channel desensitization in presence of capsaicin
[4] = target: T2, Transient receptor potential cation channel subfamily V member 2 (Homo sapiens, UniProt Q9Y5S1); test: Agonist activity at ionomycin-stimulated TRPV2 (unknown origin) channel desensitization in presence of lysophosphatidylcholine
T2 sequence (Q9Y5S1 whole entry): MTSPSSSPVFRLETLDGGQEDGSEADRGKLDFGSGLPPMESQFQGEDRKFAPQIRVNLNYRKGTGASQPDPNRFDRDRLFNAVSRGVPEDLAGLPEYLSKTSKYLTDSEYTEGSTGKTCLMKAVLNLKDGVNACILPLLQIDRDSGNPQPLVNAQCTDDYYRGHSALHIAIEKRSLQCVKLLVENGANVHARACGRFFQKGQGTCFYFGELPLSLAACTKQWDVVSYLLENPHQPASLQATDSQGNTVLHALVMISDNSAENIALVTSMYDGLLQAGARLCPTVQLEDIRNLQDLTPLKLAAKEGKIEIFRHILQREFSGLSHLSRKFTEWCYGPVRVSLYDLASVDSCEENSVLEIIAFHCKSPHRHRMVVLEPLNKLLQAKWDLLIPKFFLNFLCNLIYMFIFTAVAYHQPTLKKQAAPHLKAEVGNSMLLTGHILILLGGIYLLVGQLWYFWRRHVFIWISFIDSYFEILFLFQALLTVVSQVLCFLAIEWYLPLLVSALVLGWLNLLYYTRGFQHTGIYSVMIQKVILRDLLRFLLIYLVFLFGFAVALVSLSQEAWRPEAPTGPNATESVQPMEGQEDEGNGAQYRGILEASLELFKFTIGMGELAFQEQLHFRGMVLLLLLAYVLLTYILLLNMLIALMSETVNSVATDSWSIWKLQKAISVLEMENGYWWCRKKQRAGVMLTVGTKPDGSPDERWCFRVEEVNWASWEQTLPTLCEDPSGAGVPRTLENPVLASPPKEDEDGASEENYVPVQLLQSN

[5] = target: T3, Transient receptor potential cation channel subfamily V member 3 (Homo sapiens) (UniProt Q8NET8); test: Agonist activity at ionomycin-stimulated TRPV3 (unknown origin) activation assessed as efficacy relative to control
T3 sequence (whole entry): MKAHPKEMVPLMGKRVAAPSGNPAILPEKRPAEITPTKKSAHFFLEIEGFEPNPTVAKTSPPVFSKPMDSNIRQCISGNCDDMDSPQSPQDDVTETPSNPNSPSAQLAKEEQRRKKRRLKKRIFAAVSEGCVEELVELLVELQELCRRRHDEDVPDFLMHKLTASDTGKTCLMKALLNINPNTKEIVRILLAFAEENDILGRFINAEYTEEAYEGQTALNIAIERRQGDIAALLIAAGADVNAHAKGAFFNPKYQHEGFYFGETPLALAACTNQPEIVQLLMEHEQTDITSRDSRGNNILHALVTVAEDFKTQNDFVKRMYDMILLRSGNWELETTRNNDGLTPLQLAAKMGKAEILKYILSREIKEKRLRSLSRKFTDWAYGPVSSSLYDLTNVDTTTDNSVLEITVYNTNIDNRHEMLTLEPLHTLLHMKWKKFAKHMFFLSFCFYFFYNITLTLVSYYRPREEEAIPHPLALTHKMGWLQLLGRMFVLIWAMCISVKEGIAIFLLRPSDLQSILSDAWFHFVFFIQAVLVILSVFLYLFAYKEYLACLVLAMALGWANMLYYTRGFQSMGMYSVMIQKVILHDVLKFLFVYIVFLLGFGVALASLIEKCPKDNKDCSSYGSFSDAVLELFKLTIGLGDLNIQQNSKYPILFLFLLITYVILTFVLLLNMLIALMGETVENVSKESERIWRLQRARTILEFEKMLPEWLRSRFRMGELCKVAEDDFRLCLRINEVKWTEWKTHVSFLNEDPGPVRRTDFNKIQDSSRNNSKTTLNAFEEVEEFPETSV

[6] = target: T4, Transient receptor potential cation channel subfamily V member 3 (Homo sapiens, UniProt Q8NET8); test: Agonist activity at ionomycin-stimulated TRPV3 (unknown origin) channel desensitization in presence of carvacrol
T4 sequence (Q8NET8 whole entry): T3 sequence (whole entry)

[7] = target: Transient receptor potential cation channel subfamily V member 4 (Homo sapiens, UniProt Q9HBA0); test: Agonist activity at ionomycin-stimulated TRPV4 (unknown origin) activation
[8] = target: T5, Transient receptor potential cation channel subfamily A member 1 (Homo sapiens, UniProt O75762); test: Agonist activity at TRPA1 (unknown origin) activation
[9] = target: T5, Transient receptor potential cation channel subfamily A member 1; test: Agonist activity at TRPA1 (unknown origin) channel desensitization in presence of isothiocyanate
[10] = target: G-protein coupled receptor 6 (Homo sapiens, UniProt P46095); test: Binding affinity to human GPR6 expressed in HEK293 cells assessed as reduction in cAMP level incubated for 1 hr by HTRF assay; assay type: cell-based
Cytochrome P450 2B6 = target: T6, Cytochrome P450 2B6 (Homo sapiens, UniProt P20813); test: Mixed inhibition of recombinant CYP2B6 (unknown origin) using coumarin as substrate in presence of NADPH-generating system by Lineweaver-burk plots analysis; assay type: ADME
T6 sequence (P20813 whole entry): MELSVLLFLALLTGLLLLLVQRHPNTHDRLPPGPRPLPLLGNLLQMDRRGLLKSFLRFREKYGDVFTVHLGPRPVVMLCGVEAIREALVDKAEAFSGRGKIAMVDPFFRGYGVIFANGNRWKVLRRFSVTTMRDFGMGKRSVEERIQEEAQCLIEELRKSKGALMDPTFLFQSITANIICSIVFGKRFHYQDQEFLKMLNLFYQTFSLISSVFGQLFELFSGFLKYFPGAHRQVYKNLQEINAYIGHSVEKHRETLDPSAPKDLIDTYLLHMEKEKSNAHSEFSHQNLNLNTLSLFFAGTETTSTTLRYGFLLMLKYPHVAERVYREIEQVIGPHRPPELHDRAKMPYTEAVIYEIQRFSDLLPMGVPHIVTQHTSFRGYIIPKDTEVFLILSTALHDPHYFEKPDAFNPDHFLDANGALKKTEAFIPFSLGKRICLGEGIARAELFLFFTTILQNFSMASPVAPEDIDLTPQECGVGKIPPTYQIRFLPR

Cytochrome P450 2D6 [11] = target: T7, Cytochrome P450 2D6 (Homo sapiens, UniProt P10635); test: Inhibition of CYP2D6 in human liver microsomes in presence of NADPH-generating system incubated for 20 mins; assay type: ADME, Microsome
Cytochrome P450 2D6 [12] = target: T7, Cytochrome P450 2D6; test: Inhibition of CYP2D6 in human liver microsomes by measuring inhibition constant in presence of NADPH-generating system incubated for 20 mins; assay type: ADME, Microsome
Cytochrome P450 2C19 = Cytochrome P450 2C19 (Homo sapiens, UniProt P33261); test: Mixed inhibition of CYP2C19 (unknown origin); assay type: ADME
Chain of Cytochrome P450 2C19 (P33261 whole entry): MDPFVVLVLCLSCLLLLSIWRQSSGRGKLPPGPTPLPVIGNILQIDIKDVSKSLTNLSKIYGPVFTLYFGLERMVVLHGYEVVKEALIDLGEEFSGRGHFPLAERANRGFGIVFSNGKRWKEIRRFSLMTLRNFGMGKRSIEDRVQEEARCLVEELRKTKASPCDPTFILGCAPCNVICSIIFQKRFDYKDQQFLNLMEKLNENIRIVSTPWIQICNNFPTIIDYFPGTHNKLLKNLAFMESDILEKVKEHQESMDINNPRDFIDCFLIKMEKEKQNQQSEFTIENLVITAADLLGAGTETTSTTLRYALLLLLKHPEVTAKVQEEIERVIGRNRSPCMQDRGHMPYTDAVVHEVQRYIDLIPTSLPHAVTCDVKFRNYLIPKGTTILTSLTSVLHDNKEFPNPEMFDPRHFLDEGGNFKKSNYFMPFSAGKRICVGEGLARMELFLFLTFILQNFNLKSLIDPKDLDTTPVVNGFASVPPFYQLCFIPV

T1 sequence (Q8NER1 whole entry): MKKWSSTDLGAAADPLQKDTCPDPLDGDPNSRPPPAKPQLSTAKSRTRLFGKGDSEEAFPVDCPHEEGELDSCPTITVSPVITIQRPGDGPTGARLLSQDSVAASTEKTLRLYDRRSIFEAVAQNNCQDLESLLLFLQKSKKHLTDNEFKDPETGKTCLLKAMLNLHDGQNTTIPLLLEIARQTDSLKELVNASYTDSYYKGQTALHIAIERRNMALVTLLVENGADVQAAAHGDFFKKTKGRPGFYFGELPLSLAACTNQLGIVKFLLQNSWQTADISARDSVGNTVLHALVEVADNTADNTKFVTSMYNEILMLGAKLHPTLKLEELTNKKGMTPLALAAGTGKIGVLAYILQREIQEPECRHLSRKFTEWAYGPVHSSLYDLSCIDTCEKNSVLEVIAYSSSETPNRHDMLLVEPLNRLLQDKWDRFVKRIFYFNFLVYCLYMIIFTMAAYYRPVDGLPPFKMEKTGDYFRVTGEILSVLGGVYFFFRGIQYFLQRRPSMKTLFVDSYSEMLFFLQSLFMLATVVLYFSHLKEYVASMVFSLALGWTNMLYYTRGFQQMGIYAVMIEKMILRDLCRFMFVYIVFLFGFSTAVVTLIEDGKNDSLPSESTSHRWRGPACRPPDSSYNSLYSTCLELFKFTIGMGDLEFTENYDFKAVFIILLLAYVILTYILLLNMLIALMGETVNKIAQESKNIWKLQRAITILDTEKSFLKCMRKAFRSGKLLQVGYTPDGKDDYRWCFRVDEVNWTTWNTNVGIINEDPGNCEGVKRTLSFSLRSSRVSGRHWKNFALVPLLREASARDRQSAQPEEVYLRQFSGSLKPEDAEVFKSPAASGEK
T5 sequence (O75762 whole entry): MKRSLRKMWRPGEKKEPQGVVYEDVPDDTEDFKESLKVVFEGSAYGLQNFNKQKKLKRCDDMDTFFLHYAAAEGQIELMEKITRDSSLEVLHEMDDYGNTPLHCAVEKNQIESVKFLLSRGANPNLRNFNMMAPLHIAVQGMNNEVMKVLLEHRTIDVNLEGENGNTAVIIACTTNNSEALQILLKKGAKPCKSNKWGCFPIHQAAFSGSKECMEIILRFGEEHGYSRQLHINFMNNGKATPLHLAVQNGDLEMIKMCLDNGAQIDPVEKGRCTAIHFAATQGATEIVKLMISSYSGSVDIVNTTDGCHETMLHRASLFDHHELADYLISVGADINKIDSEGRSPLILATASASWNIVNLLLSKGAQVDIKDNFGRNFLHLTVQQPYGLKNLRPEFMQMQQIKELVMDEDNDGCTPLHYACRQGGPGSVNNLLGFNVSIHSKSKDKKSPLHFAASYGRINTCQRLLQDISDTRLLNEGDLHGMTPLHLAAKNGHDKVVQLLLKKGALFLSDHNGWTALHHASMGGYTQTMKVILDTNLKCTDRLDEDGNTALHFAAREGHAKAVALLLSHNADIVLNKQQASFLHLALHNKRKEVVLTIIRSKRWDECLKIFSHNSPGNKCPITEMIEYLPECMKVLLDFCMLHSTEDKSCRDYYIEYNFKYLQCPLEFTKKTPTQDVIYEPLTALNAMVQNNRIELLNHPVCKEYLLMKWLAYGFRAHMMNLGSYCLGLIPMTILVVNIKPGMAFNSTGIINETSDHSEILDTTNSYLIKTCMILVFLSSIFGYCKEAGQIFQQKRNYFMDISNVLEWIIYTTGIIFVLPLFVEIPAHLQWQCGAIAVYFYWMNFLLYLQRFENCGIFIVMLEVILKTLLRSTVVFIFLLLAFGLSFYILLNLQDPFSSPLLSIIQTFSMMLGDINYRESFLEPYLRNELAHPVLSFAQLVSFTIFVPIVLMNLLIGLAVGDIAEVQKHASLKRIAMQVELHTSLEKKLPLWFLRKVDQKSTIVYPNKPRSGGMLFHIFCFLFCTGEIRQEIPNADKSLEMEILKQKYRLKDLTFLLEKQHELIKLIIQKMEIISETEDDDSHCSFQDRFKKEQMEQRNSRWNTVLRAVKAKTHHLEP
T7 sequence (P10635 whole entry): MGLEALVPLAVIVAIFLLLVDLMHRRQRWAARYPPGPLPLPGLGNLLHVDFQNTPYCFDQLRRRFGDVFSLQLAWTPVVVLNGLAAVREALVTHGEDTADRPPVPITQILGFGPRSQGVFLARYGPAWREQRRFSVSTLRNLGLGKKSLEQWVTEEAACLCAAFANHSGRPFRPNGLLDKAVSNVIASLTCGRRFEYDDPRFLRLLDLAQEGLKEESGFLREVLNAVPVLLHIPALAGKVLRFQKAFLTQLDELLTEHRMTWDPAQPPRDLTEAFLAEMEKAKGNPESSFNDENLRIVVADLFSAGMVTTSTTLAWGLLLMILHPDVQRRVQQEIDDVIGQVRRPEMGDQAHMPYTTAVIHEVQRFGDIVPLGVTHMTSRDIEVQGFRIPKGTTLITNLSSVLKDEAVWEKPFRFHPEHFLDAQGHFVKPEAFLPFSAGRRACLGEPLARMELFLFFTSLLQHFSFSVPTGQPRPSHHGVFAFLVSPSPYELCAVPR
Chain of G-protein coupled receptor 6 (P46095 whole entry): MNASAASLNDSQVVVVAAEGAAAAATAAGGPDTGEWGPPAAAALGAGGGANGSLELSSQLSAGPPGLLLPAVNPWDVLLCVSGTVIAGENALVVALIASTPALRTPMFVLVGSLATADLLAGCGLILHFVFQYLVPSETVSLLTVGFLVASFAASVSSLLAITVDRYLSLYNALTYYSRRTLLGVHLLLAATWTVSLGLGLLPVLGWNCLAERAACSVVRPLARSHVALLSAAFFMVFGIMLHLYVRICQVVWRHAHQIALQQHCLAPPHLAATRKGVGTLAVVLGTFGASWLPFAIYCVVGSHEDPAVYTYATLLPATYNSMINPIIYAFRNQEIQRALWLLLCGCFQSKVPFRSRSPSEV
Chain of Transient receptor potential cation channel subfamily V member 4 (Q9HBA0 whole entry): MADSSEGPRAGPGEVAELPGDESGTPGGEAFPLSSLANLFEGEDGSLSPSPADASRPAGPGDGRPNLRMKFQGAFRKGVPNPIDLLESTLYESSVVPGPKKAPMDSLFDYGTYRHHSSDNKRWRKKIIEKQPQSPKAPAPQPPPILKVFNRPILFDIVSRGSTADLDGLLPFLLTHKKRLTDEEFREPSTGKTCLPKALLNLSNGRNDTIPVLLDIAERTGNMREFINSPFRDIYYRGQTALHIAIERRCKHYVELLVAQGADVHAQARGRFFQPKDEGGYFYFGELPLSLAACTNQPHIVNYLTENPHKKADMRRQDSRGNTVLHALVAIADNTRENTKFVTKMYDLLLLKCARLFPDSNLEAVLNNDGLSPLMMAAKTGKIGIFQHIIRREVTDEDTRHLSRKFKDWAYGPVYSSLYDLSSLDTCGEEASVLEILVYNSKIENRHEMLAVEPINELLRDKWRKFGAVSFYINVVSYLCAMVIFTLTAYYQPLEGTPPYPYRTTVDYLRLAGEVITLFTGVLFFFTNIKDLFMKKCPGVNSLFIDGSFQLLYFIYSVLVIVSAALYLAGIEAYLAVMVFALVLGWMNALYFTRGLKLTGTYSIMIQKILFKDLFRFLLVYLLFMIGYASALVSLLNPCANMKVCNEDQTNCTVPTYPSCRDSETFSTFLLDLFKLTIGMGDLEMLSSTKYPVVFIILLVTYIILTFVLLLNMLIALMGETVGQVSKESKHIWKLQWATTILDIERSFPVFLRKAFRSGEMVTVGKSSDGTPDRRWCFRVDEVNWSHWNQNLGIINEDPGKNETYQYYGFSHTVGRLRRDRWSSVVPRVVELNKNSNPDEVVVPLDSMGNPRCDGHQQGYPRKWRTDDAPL

Compound: C=C(C)[C@@H]1CCC(C)=C[C@H]1c1c(O)cc(CCC)cc1O [CANNABIDIVARIN]
- EC50 [1]: 3.6 µM
- Efficacy [2]: 21%
- IC50 [3]: 10 µM
- IC50 [4]: 31 µM
- Efficacy [5]: 16%
- IC50 [6]: 25 µM
- EC50 [7]: 0.9 µM
- EC50 [8]: 0.42 µM
- IC50 [9]: 1.3 µM
- EC50 [10]: 2.4 µM
- Ki (Cytochrome P450 2B6): 1.3 µM
- IC50 (Cytochrome P450 2D6 [11]): 10.2 µM
- Ki (Cytochrome P450 2D6 [12]): 5.8 µM
- IC50 (Cytochrome P450 2C19): 3.7 µM
